Assay results from ChEMBL document CHEMBL1158929, “Tolytoxin and new scytophycins from three species of Scytonema” (J Nat Prod, 1990).
Converted amounts (≈) assume the structure as drawn. The source made the active and inactive calls. The calls are words filed in the database; no cut-off is given here.

Tests used:
KB = assay: Cytotoxicity against human KB cells; type: functional, cell-based
Aspergillus oryzae = assay: Antifungal activity against Aspergillus oryzae by agar diffusion assay; type: functional, organism-based
Candida albicans = assay: Antifungal activity against Candida albicans by agar diffusion assay; type: functional, organism-based
Penicillium chrysogenum = assay: Antifungal activity against Penicillium notatum by agar diffusion assay; type: functional, organism-based
Saccharomyces cerevisiae = assay: Antifungal activity against Saccharomyces cerevisiae by agar diffusion assay; type: functional, organism-based
LoVo = assay: Cytotoxicity against human LoVo cells; type: functional

Row | SMILES | IC50 (KB) [ng/mL] | Activity (Aspergillus oryzae) | Activity (Candida albicans) | Activity (Penicillium chrysogenum) | Activity (Saccharomyces cerevisiae) | MIC (LoVo) [µg/mL]
1 | CO[C@H]([C@H](C)/C=C/N(C)C=O)[C@@H](C)C(=O)CC[C@H](C)[C@H](O)[C@H](C)[C@H]1OC(=O)/C=C/C(C)=C/C[C@H](O)C[C@@H]2C=CC[C@@H](C[C@H](OC)[C@@H](C)[C@@H](OC)C[C@@H](O)[C@@H]1C)O2 | 1 (≈ 1.26 nM) | Active | Active | Active | Active | –
2 | CO[C@H]([C@H](C)/C=C/N(C)C=O)[C@@H](C)C(=O)CC[C@H](C)[C@H](O)[C@H](C)[C@H]1OC(=O)/C=C/C(C)=C/[C@H](O)[C@H](OC)C[C@@H]2C=CC[C@@H](C[C@H](OC)[C@@H](CO)[C@@H](OC)C[C@@H](OC)[C@@H]1C)O2 | 1 (≈ 1.17 nM) | Active | Active | Active | Active | –
3 | CO[C@H]([C@H](C)/C=C/N(C)C=O)[C@@H](C)C(=O)CC[C@H](C)[C@H](O)[C@H](C)[C@H]1OC(=O)/C=C/C(C)=C/[C@H](O)[C@H](O)C[C@@H]2C=CC[C@@H](C[C@H](OC)[C@@]3(CO3)[C@@H](OC)C[C@@H](OC)[C@@H]1C)O2 [6-HYDROXYSCYTOPHYCIN B] | 1 (≈ 1.2 nM) | Active | Active | Active | Active | –
4 | CO[C@H]([C@H](C)/C=C/N(C)C=O)[C@@H](C)C(O)CC[C@H](C)[C@H](O)[C@H](C)[C@H]1OC(=O)/C=C/C(C)=C/C[C@H](O)C[C@@H]2C=CC[C@@H](C[C@H](OC)[C@@]3(CO3)[C@@H](OC)C[C@@H](OC)[C@@H]1C)O2 (stereo partly specified) [SCYTOPHYCIN A] | 1 (≈ 1.22 nM) | – | – | – | – | –
5 | CO[C@H]([C@H](C)/C=C/N(C)C=O)[C@@H](C)C(=O)CC[C@H](C)[C@H](O)[C@H](C)[C@H]1OC(=O)/C=C/C(C)=C/C[C@H](O)C[C@@H]2C=CC[C@@H](C[C@H](OC)[C@@]3(CO3)[C@@H](OC)C[C@@H](OC)[C@@H]1C)O2 [SCYTOPHYCIN B] | 1 (≈ 1.22 nM) | – | – | – | – | –
6 | CO[C@H]([C@H](C)/C=C/N(C)C=O)[C@@H](C)C(=O)CC[C@H](C)[C@H](O)[C@H](C)[C@H]1OC(=O)/C=C/C(C)=C/C[C@H](O)C[C@@H]2C=CC[C@@H](C[C@H](OC)[C@@H](C)[C@@H](OC)C[C@@H](OC)[C@@H]1C)O2 [SCYTOPHYCIN C] | 10 (≈ 12.4 nM) | – | – | – | – | –
7 | CO[C@H]([C@H](C)/C=C/N(C)C=O)[C@@H](C)C(=O)CC[C@H](C)[C@H](O)[C@H](C)[C@H]1OC(=O)/C=C/C(C)=C/C[C@H](O)C[C@@H]2C=CC[C@@H](C[C@H](OC)[C@](C)(O)[C@@H](OC)C[C@@H](OC)[C@@H]1C)O2 [SCYTOPHYCIN D] | 10 (≈ 12.2 nM) | – | – | – | – | –
8 | CO[C@H]([C@H](C)/C=C/N(C)C=O)[C@@H](C)C(=O)CC[C@H](C)[C@H](O)[C@H](C)[C@H]1OC(=O)/C=C/C(C)=C/C[C@H](O)C[C@@H]2C=CC[C@@H](C[C@H](OC)[C@@H](CO)[C@@H](OC)C[C@@H](OC)[C@@H]1C)O2 [SCYTOPHYCIN E] | 10 (≈ 12.2 nM) | – | – | – | – | 0.01 (≈ 12.2 nM)
9 | CO[C@H]([C@H](C)/C=C/N(C)C=O)[C@@H](C)C(=O)CC[C@H](C)[C@H](O)[C@H](C)[C@H]1OC(=O)/C=C/C(C)=C/[C@H](O)[C@H](OC)C[C@@H]2C=CC[C@@H](C[C@H](OC)[C@@]3(CO3)[C@@H](OC)C[C@@H](OC)[C@@H]1C)O2 [TOLYTOXIN] | 1 (≈ 1.18 nM) | Active | Active | Active | Active | –
